Laboratory results as given in patent US7884120B2, “2,4,5-trisubstituted imidazoles and their use as anti-microbial agents” (Lorus Therapeutics Inc., priority 2002, dated 2011).
Converted amounts (≈) assume the structure as drawn. Like-named read-outs stand apart in the source and are kept apart here.

How the values were obtained:
[1] = system: Methicillin-Resistant Staphylococcus aureus (MRSA), CMRSA-1B; experiment: MIC by sequential macrodilution (tube) broth method against MRSA; assay type: cell-based; design: key: (+): Positive visual bacterial growth; (−): Negative visual bacterial growth; conditions: 37° C. overnight
Method: (Nat. Committee for Clinical Laboratory Standards. Document M7-A5 2000, 20; 1-25). Bacterial suspensions containing 5×10^5 colony-forming units (CFU) were incubated with serial two-fold dilutions of each drug at 37° C. overnight, and growth was monitored visually. The range of MIC values among the triaryl-imidazole derivatives was 12.5-50 μg/ml.

[2] = system: multi-drug resistant Staphylococcus aureus (CMRSA-1B); experiment: Bactericidal effect against MRSA (CFU plating on TSA); assay type: cell-based; conditions: overnight with compound, plated on TSA, CFU count (FIG. 1)
Method: Serial dilutions of liquid cultures were incubated with the compounds at 37° C. overnight and then plated on Tryptic Soy Agar (TSA) plates. After incubation for 17 hours at 37° C., the number of live bacteria was calculated from the number of colonies grown per milliliter of culture and expressed as colony-forming units (CFU).

MRSA-1B387 = experiment: In vivo inhibition of MRSA, acute infection in immunosuppressed CB17-SCID mice; design: species or system Staphylococcus aureus; conditions: 5×10^6 MRSA-1B387 in 5% mucin, 50 mg/kg I.P. immediately and 3 hours after inoculation
Method: Triaryl-imidazole compounds were tested in vivo for antibacterial activity against MRSA in a model of acute infection using immunosuppressed mice. Suspensions of 400 μL containing 5×10^6 MRSA-1B387 bacteria in 5% mucin were injected into groups of 5-10 female, 8-14 weeks CB17-SCID mice. Under these conditions bacterial infection produced 80-100% lethality in less than 48 hours. Each group of inoculated mice was treated with 50 mg/kg of the respective compound intraperitoneally (I.P.) immediately and 3 hours after bacterial inoculation.

[3] = system: S. aureus, MRSA 1A-218, 1A-318, 1B-374, 1B-315, 1B-185, 1B387 and MSSA ATCC-6538, ATCC-29213; experiment: MIC by standard microdilution method against S. aureus (MRSA and MSSA strains); assay type: cell-based; conditions: Staphylococcus aureus
Method: (§1) A standard microdilution method (NCCLS, 2000; Document M7-A5) was used to determine the minimum inhibitory concentrations (MICs) against S. aureus, methicillin-resistant strains (MRSA); 1A-218, 1A-318, 1B-374, 1B-315, 1B-185, 1B387 (Simor et al. 1999 Can Commun Dis Rep; 25:105-108) and methicillin-sensitive strains (MSSA); ATCC-6538 and ATCC-29213. The MICs of some compounds were also determined against other Gram-positive bacteria: Enterococcus faecium (ATCC 51559), Enterococcus faecalis (ATCC-51299, ATCC-29212) and Staphylococcus epidermidis (ATCC-35983).
(§2) Mueller-Hinton broth (MHB) is recommended as the medium of choice for susceptibility testing of commonly isolated, rapidly growing aerobic organisms such as the Gram-positive bacteria included in this study. A “cation-adjusted Mueller-Hinton broth” (Ca-MHB) was prepared by first preparing standard MHB from a dehydrated base as recommended by the manufacturer.
(§3) Single colonies from fresh agar plates of the different bacterial cultures were sub-cultured overnight in 3 ml of Tryptic soy broth (TSB) at 37° C. with shaking at 250 RPM. After 18-20 hours of incubation, the absorbance at λ=600 nm (OD600) were determined for each culture and adjusted to a final OD600=0.1 (4.2×10^7 cfu/ml). Bacterial suspensions were then diluted 1:200 in sterile Ca-MHB for the in vitro susceptibility test, with each well of the microtitre plate containing approximately 2×10^5 cfu/ml.
(§4) Stock solutions of the different test compounds were prepared at concentrations of 1,280 μg/ml, 640 μg/ml, or 320 μg/ml in 50% DMSO (dimethyl sulfoxide). Serial two-fold dilutions were then prepared in 50% DMSO (the working concentrations were 1:10 of the stock concentrations in 100 μl culture suspensions). The filled microtitre plates were sealed in plastic bags and incubated at 35° C. for 24 hr in an ambient air incubator with shaking at 250 RPM. MIC values were determined as the lowest concentration where complete inhibition of the visible bacterial growth was observed by the unaided eye and confirmed by the measurement of the optical density (OD600).

MRSA 1B-387 = experiment: In vivo anti-bacterial activity, ICR mice inoculated I.P. with MRSA, oral treatment; conditions: Staphylococcus aureus
Method: For in vivo studies, groups of 5-10 female ICR mice (6-7 weeks) were inoculated intraperitonially with 3-8×10^7 CFU MRSA 1B-387 per mouse in 400 μl of 5% mucin. The test compounds at concentrations of 50 or 100 mg/kg were administered orally immediately after the bacterial inoculation and again 3 hours later. The selected dosages were administered twice daily throughout the experiment. The efficacy of the treatment was evaluated by comparison of mortality between the experimental and control groups (Table 5).

[4] = system: Candida albicans (ATCC 24433); experiment: In vitro anti-fungal activity, microdilution against Candida albicans; assay type: cell-based; conditions: for MIC: ATCC24433, C. albicans ATCC 24433
Method: A microdilution method was used to determine the anti-fungal activity of different test compounds against Candida albicans (ATCC 24433) at 25 μg/ml. RPMI-1640 broth is recommended as the medium of choice for susceptibility testing of C. albicans (NCCLS, 2002; Document M27-A2) and was used in this study. The broth was buffered to pH 7.0 and then sterilized using a 250 ml vacuum driven disposable 0.45 um filtration system.
C. albicans was sub-cultured from a −80° C. stock onto Sabouraud dextrose agar and incubated for 24-48 hrs at 37° C. The fungi inoculum was prepared by picking five colonies of ˜1 mm in diameter from 24-48 hr old cultures. The colonies were then suspended in 5 ml of sterile normal saline (8.5 g/L NaCl; 0.85% saline) diluted 1:50 and further diluted 1:20 with medium to obtain two-fold inoculum (1-5×10^3 cfu/ml). […] The microtitre plates were then sealed in plastic bags and incubated at 35° C. for 24-48 hrs in an ambient air incubator with shaking at 250 RPM.
Inhibition of visible growth of C. albicans in the microtitre plate wells was assessed by the unaided eye and confirmed by OD600 reading. […] The MIC values of compounds with significant activity are also included.

[5] = system: Enterococcus faecium (ATCC-51559); experiment: MIC by microdilution against Enterococcus faecium; assay type: cell-based; conditions: unit not given in Table 4 (Table 3, same method: μg/ml)
Method: as §1, §2, §3, §4

[6] = system: Enterococcus faecalis (ATCC-51299); experiment: MIC by microdilution against Enterococcus faecalis ATCC-51299; assay type: cell-based; conditions: unit not given in Table 4 (Table 3, same method: μg/ml)
Method: as §1, §2, §3, §4

[7] = system: Enterococcus faecalis (ATCC-29212); experiment: MIC by microdilution against Enterococcus faecalis ATCC-29212; assay type: cell-based; conditions: unit not given in Table 4 (Table 3, same method: μg/ml)
Method: as §1, §2, §3, §4

[8] = system: Staphylococcus epidermidis (ATCC-35983); experiment: MIC by microdilution against Staphylococcus epidermidis; assay type: cell-based; conditions: unit not given in Table 4 (Table 3, same method: μg/ml)
Method: as §1, §2, §3, §4

[9] = against all 8 strains of S. aureus tested except where indicated, microdilution, Ca-MHB, 35° C., 24 hr, read-out: MIC
[10] = ATCC24433, C. albicans ATCC 24433, compound 25 μg/ml, 24 h, read-out: Inhibition (%) after 24 h
[11] = ATCC24433, C. albicans ATCC 24433, compound 25 μg/ml, 48 h, read-out: Inhibition (%) after 48 h
[12] = ATCC24433, 24 h, read-out: Inhibition (%) after 24 h
[13] = ATCC24433, 48 h, read-out: Inhibition (%) after 48 h

Row | SMILES | MIC [3, 9] | responders at 100 mg/kg (MRSA 1B-387) | responders at 100 mg/kg (MRSA 1B-387; read-out: Survival %) | inhibition at 25 µg/mL [4, 10] | inhibition at 25 µg/mL [4, 11] | other results
1 | O=C(O)c1ccc(-c2nc(-c3ccc(Sc4ccccc4)cc3)c(-c3ccccc3)[nH]2)cc1 [Compound 1] |  |  |  |  |  | visual bacterial growth ([1]; Conc. 3.12 μg/ml): +; visual bacterial growth ([1]; Conc. 6.25 μg/ml): +; visual bacterial growth ([1]; Conc. 12.50 μg/ml): −; visual bacterial growth ([1]; Conc. 25.00 μg/ml): −; visual bacterial growth ([1]; Conc. 50.00 μg/ml): −; visual bacterial growth ([1]; Conc. 100.00 μg/ml): −; bactericidal or bacteriostatic effect at the corresponding MIC [2]: bactericidal effect; Survival (%) (MRSA-1B387): 40%
2 | O=C(O)c1ccc(-c2nc(-c3ccc(Br)cc3)c(-c3ccccc3Br)[nH]2)cc1 [Compound 3] |  |  |  |  |  | visual bacterial growth ([1]; Conc. 3.12 μg/ml): +; visual bacterial growth ([1]; Conc. 6.25 μg/ml): +; visual bacterial growth ([1]; Conc. 12.50 μg/ml): +; visual bacterial growth ([1]; Conc. 25.00 μg/ml): −; visual bacterial growth ([1]; Conc. 50.00 μg/ml): −; visual bacterial growth ([1]; Conc. 100.00 μg/ml): −; bactericidal or bacteriostatic effect at the corresponding MIC [2]: bacteriostatic effect; Survival (%) (MRSA-1B387; 50 mg/kg): 15%
3 | O=C(O)c1ccc(-c2nc(-c3ccc(Br)cc3)c(-c3ccccc3Br)[nH]2)cc1 [Compound 4] |  |  |  |  |  | visual bacterial growth ([1]; Conc. 3.12 μg/ml): +; visual bacterial growth ([1]; Conc. 6.25 μg/ml): +; visual bacterial growth ([1]; Conc. 12.50 μg/ml): +; visual bacterial growth ([1]; Conc. 25.00 μg/ml): +; visual bacterial growth ([1]; Conc. 50.00 μg/ml): −; visual bacterial growth ([1]; Conc. 100.00 μg/ml): −; bactericidal or bacteriostatic effect at the corresponding MIC [2]: bacteriostatic effect; Survival (%) (MRSA-1B387; 50 mg/kg): 50%
4 | Cc1[nH]c2ccccc2c1-c1nc(-c2ccc(N(C)C)cc2)c(-c2ccc(N(C)C)cc2)[nH]1 [Compound 11] | 8 µg/mL (≈ 18.4 µM) | 0% | 0% | 27% | 28% | 
5 | Cc1[nH]c2ccccc2c1-c1nc(-c2ccc(Br)cc2)c(-c2ccc(Br)cc2)[nH]1 [Compound 13] | 2 to 4 µg/mL (≈ 3.94 to 7.89 µM) | 20% | 20% | 0% | 0% | MIC [5]: 32; MIC [6]: 32
6 | Clc1ccc(-c2[nH]c(-c3c[nH]c4ccc(Br)cc34)nc2-c2ccccc2)cc1 [Compound 32] | 8 µg/mL (≈ 17.8 µM) | 40% | 40% | 93% | 100% | MIC [4]: 8 µg/mL (≈ 17.8 µM)
7 | Cc1[nH]c2ccccc2c1-c1nc(-c2ccccc2)c(-c2ccc([N+](=O)[O-])cc2)[nH]1 [Compound 33] | 4 to 8 µg/mL (≈ 10.1 to 20.3 µM) | 0% | 0% | 0% | 0% | 
8 | O=[N+]([O-])c1ccc(-c2[nH]c(-c3c[nH]c4ccc(Br)cc34)nc2-c2ccccc2)cc1 [Compound 34] | > 128 µg/mL | 100% | 100% | 0% | 0% | 
9 | Cc1[nH]c2ccccc2c1-c1nc(-c2ccccc2)c(-c2ccc(F)cc2)[nH]1 [Compound 35] | 8 µg/mL (≈ 21.8 µM) | 4% | 40% | 100% | 73% | 
10 | Fc1ccc(-c2[nH]c(-c3c[nH]c4ccc(Br)cc34)nc2-c2ccccc2)cc1 [Compound 36] | 2 µg/mL (≈ 4.63 µM) | 80% | 80% | 86% | 97% | MIC [4]: 16 µg/mL (≈ 37 µM)
11 | Cc1[nH]c2ccccc2c1-c1nc(-c2ccccc2)c(-c2ccc(Br)cc2)[nH]1 [Compound 42] | 4 µg/mL (≈ 9.34 µM) | 0% | 0% | 77% | 43% | 
12 | Brc1ccc(-c2[nH]c(-c3c[nH]c4ccc(Br)cc34)nc2-c2ccccc2)cc1 [Compound 43] | 4 µg/mL (≈ 8.11 µM) | 80% | 80% | 87% | 59% | MIC [4]: 8 µg/mL (≈ 16.2 µM)
13 | Cc1[nH]c2ccccc2c1-c1nc2c3ccccc3c3ccccc3c2[nH]1 [Compound 44] |  | 60% | 60% |  |  | MIC ([3]; 24 h): 8 µg/mL (≈ 23 µM); inhibition at 25 µg/mL [4, 12]: 0%; inhibition at 25 µg/mL [4, 13]: 0%
14 | c1ccc2c(-c3nc4c5ccccc5c5ccccc5c4[nH]3)c[nH]c2c1 [Compound 46] |  | 40% | 40% |  |  | MIC ([3]; 24 h): 4 µg/mL (≈ 12 µM); inhibition at 25 µg/mL [4, 12]: 33%; inhibition at 25 µg/mL [4, 13]: 0%
15 | COC(=O)c1ccc2c(-c3nc(-c4ccccc4)c(-c4ccccc4)[nH]3)c[nH]c2c1 [Compound 83] | > 128 µg/mL | 20% | 20% | 0% | 0% | 
16 | CN[C@H](CC(C)C)C(=O)N[C@H]1C(=O)N[C@@H](CC(N)=O)C(=O)N[C@H]2C(=O)N[C@H]3C(=O)N[C@H](C(=O)N[C@H](C(=O)O)c4cc(O)cc(O)c4-c4cc3ccc4O)[C@H](O)c3ccc(c(Cl)c3)Oc3cc2cc(c3O[C@@H]2O[C@H](CO)[C@@H](O)[C@H](O)[C@H]2O[C@H]2C[C@](C)(N)[C@H](O)[C@H](C)O2)Oc2ccc(cc2Cl)[C@H]1O [Vancomycin, reference compound] |  |  |  |  |  | Survival (%) (MRSA-1B387): 100%; MIC [5]: >128; MIC [6]: 32; MIC [7]: 4; MIC [8]: 2
